We go through three molecules from EPA's ToxValDB 9.5 (doi:10.2903/j.efsa.2017.4790).

One series has as its system Canidae. The following applies: chronic; duration: 1 years; oral; Dog Other; organ weight.
The next series concerns Daphnia magna. The settings on record: chronic/long-term; duration: 21 days; reproduction.
A further series deals with Folsomia candida. The settings on record: chronic/long-term; mortality.
The subject of the next series is Oncorhynchus mykiss. The following applies: chronic/long-term; duration: 21 days; behavior.
In the next series the test system is Rattus norvegicus. The following applies: for LD50: acute, mortality.
Another series has as its system Apis mellifera. The settings on record: acute, mortality.
In a further series the test system is Colinus virginianus. The settings on record: acute, oral, mortality.

Structures are written as SMILES.

For the molecule `N#Cc1cc(Br)c(O)c(Br)c1` [Bromoxynil], the NOAEL was 10.9 mg/kg-day in the series on Anas platyrhynchos (reproductive); 0.3 mg/kg-day in the series with Canidae; 4 mg/kg-day with Rattus norvegicus (developmental, development); 3.39 mg/kg-day with Rattus norvegicus (reproduction developmental, body weight). For the same molecule, the results for the NOEC in the series on Daphnia magna, with Folsomia candida and in the series with Oncorhynchus mykiss were 3.1 mg/L, 56 mg/kg and 2 mg/L, respectively.
`CCCC(=O)Oc1c(Br)cc(C#N)cc1Br` [Bromoxynil butyrate] returned a no observed adverse effect level (NOAEL) with Anas platyrhynchos (chronic/long-term) of 15.9 mg/kg-day. Also, the LD50 in the series with Apis mellifera (dermal) is 199 µg/piece; in the series on Apis mellifera (oral, unspecified) it was 76.4 µg/piece; in the series with Colinus virginianus (diet), above 190 mg/kg-day; with Colinus virginianus, 420 mg/kg-day; in the series on Rattus norvegicus (M/F), 116 mg/kg-day. This molecule also gave an NOEC with Folsomia candida of 125 mg/kg.
In the case of `CCCCCCC(=O)Oc1c(Br)cc(C#N)cc1Br` [Bromoxynil heptanoate], the NOAEL in the series with Anas platyrhynchos (reproductive) came out at 15.9 mg/kg-day; with Canidae it was 0.3 mg/kg-day; in the series with Rattus norvegicus (developmental, development) it was 4 mg/kg-day. Further, the LD50 with Apis mellifera (dermal) was above 201 µg/piece; in the series on Apis mellifera (oral, unspecified), above 201 µg/piece; in the series with Colinus virginianus (diet), 1900 mg/kg-day; with Colinus virginianus it was 379 mg/kg-day; with Rattus norvegicus (F), 292 mg/kg-day. Further, in the series on Folsomia candida, the NOEC stood at 70.5 mg/kg.
